{
  "source": "patent US8501911B2",
  "about": "“Methods of reducing inflammation and mucus hypersecretion” (Biomarck Pharmaceuticals, Ltd, priority 1999, dated 2013)",
  "key": {"[1]": {"tested_on": "LPS-primed human neutrophils", "experiment": "MPO secretion from LPS-primed human neutrophils", "assay_type": "cell-based", "description": "Results-I-11 and Results-I-12 show MPO secretion from LPS-primed human neutrophils as a model for humans, and Results-I-13, Results-I-14, and Results-I-15 show MPO secretion from LPS-primed canine neutrophils as a model for canines. In all of these experiments, isolated neutrophils were stimulated with LPS at a concentration of 1×10^−6 M for 10 minutes at 37° C. prior to adding the stimuli. The LPS primes the cells so they can respond to a secretagogue.\nThus, in one comparative experiment, when absorbance was monitored at 450 nm while observing MPO secretion from LPS-primed human neutrophils, Results-I-11 were obtained as follows.\nIn another comparative experiment, when absorbance was monitored at 450 nm while observing MPO secretion from LPS-primed human neutrophils, Results-I-12 were obtained as follows.\nMPO Colorimetric Enzyme Assay—Samples were assayed for MPO activity in 96 well round bottom microtiter plates using a sandwich ELISA kit (R & D Systems, Minneapolis, Minn.). Briefly, 20 microliters of sample is mixed with 180 microliters of substrate mixture containing 33 mM potassium phosphate, pH 6.0, 0.56% Triton X-100, 0.11 mM hydrogen peroxide, and 0.36 mM O-Diannisidine Dihydrochloride in an individual microtiter well. […] After mixing, the assay mixture was incubated at room temperature for 5 minutes, and MPO enzyme activity determined spectrophotometrically at 550 nanometers. […]"}, "human neutrophils": {"tested_on": "human neutrophils", "experiment": "MPO secretion from isolated human neutrophils stimulated with PMA+8-Br-cGMP", "assay_type": "cell-based", "description": "(§1) MPO Colorimetric Enzyme Assay—Samples were assayed for MPO activity in 96 well round bottom microtiter plates using a sandwich ELISA kit (R & D Systems, Minneapolis, Minn.). Briefly, 20 microliters of sample is mixed with 180 microliters of substrate mixture containing 33 mM potassium phosphate, pH 6.0, […], 0.11 mM hydrogen peroxide, and 0.36 mM O-Diannisidine Dihydrochloride in an individual microtiter well. The final concentrations in the assay mixture are: 30 mM potassium phosphate, pH 6.0, 0.05% Triton X-100, 0.1 mM hydrogen peroxide, and 0.32 mM O-Diannisidine Dihydrochloride. […] Samples were assayed in duplicate."}, "canine neutrophils": {"tested_on": "canine neutrophils", "experiment": "MPO secretion from isolated canine neutrophils stimulated with PMA+8-Br-cGMP", "assay_type": "cell-based", "description": "Isolation of PMNs from canine blood—The steps involved in isolating PMN include collecting 10 ml ACD anticoagulated blood; then layering 5 ml on 3.5 ml PMN isolation media while ensuring that the PMN isolation media (IM) was at room temperature (RI). Next, the blood was centrifuged at room temperature for 30′, 550×g at 1700 RPMs. The low lower white band was transferred into a 15 ml conical centrifuge tube (CCFT). Next, 2V HESS with 10% fetal bovine serum […] was added and centrifuged at room temperature for 10′, 400×g at 1400 RPMs. The pellet was then resuspended in 5 ml 1-1ESS with PBS. The cell suspension was added to 50 ml CCFT containing 20 ml of ice cold 0.88% NH4 Cland inverted two to three times. The resulting product was centrifuged for 10′, 800×g at 2000 RPMs, then aspirated and resuspended in ml HBSS with FBS. The prep was examined by counting and cytospin and preferably for whole blood, the cell number should be between 10^9-10^11 cells and for PMNs, cell number should be between 2-4×10^7 cells. See generally, Wang et al., J. Immunol., “Neutrophil-induced changes in the biomechanical properties of endothelial cells: roles of ICAM-1 and reactive oxygen species,” 6487-94 (2000).\nas §1"}, "[2]": {"tested_on": "ozone-induced neutrophil migration into the airways", "experiment": "Mouse model of ozone-induced COPD (BAL analysis)", "assay_type": "in vivo", "conditions": "for % Neutrophils found in BAL fluid: intratracheal 1.0 mM peptide 30 min before ozone 2 hours (PBS + Ozone 21.4); for IFNγ in BAL fluid: peptide pretreatment then ozone (PBS + ozone approx. 18); for IL-6 in BAL fluid: peptide pretreatment then ozone (PBS + ozone approx. 197); for KC in BAL fluid: peptide pretreatment then ozone (PBS + ozone approx. 240); for % Inhibition of neutrophil migration into BAL fluid: relative to control group treated with PBS", "description": "Ten-week-old Balb/C female mice were obtained from Charles River laboratories and housed under NIH guidelines in groups of 5 per cage. The animals received standard rodent diet and filtered water ad libitum. Three treatment groups of mice, 5 animals in each group, were each anesthetized by intraperitoneal injection of Ketamine (100 mg/kg) and Xylazine (20 mg/kg) and then pretreated by intratracheal administration with […] of either PBS alone, or a solution of 1.0 mM MANS peptide in PBS, or a solution of a 1.0 mM of a MANS-fragment-peptide designated as SEQ ID NO: 15 (MA-GAQFSKTAAK) in PBS. After 30 minutes, the animals were then placed in the appropriate custom-made chamber for ozone or forced air exposures. The animals were exposed to ozone for 2 hours (at ozone concentrations of 1-10 ppm by a slightly modified method described by Haddad et al, 1995. (Haddad E-B, Salmon M, Sun J, Liu S, Das A, Adcock I, Barnes P J, and Chung K F, FEBS Letters, 363:285-288, 1995). The ozone was generated using an ozone generator apparatus model OL80F/B from OzoneLab, Burton, British Columbia, Canada. Ozone concentration was continuously monitored using a Teledyne Photometric O3 Analyzer (model 400E, Teledyne Instruments, City of Industry, Calif.). Two additional groups of mice, each without any pretreatment, were either exposed to ozone under the same conditions or exposed to forced air under conditions similar to the ozone treatment group but absent ozone. After exposure, the animals were sacrificed by exsanguination and the lungs were serially lavaged 2 times with 1.0 mL aliquots of PBS. The collected bronchoalveolar lavage (BAL) fluid was centrifuged to remove the cells for subsequent counting and differential analysis. Recovered lavage fluid was used for protein and additional analysis of IL-6, IFNγ, and KC (murine IL-8 analog) by ELISA assay (assay kits obtained from R&D Systems, Minneapolis, Minn.)."}, "[3]": {"conditions": "peptide 1 μM + 100 nM PMA+10 μM 8-Br-cGMP, unstimulated control 0.076"}, "[4]": {"conditions": "peptide 10 μM + 100 nM PMA+10 μM 8-Br-cGMP"}, "[5]": {"conditions": "peptide 100 μM + 100 nM PMA+10 μM 8-Br-cGMP"}, "[6]": {"conditions": "peptide 1 μM + 100 nM PMA+10 μM 8-Br-cGMP, unstimulated control 0.10"}},
  "note": "Several values for one entry are separate records, joined by “and”; a condition that tells them apart may be missing. Identical values can stand only once. Residues, ends and D or L forms follow the SMILES beside them. *: point of attachment. Myristoyl = CCCCCCCCCCCCCC(=O)*",
  "data": [
    {"smiles": "Nc1nc2c(nc(Br)n2[C@@H]2O[C@@H]3COP(=O)(O)O[C@H]3[C@H]2O)c(=O)[nH]1", "note": "[8-Br-cGMP]", "values": [
      {"measurement": "Absorbance reading at 450 nm (MPO secretion)", "setting": "[1]; cGMP alone, concentration not given", "value": 0.155}
    ]},
    {"smiles": "CCCCCCCCCCCCCC(=O)NCC(=O)N[C@@H](C)C(=O)N[C@@H](CCC(N)=O)C(=O)N[C@@H](Cc1ccccc1)C(=O)N[C@@H](CO)C(=O)N[C@@H](CCCCN)C(=O)N[C@H](C(=O)N[C@@H](C)C(=O)N[C@@H](C)C(=O)N[C@@H](CCCCN)C(=O)NCC(=O)N[C@@H](CCC(=O)O)C(=O)N[C@@H](C)C(=O)N[C@@H](C)C(=O)N[C@@H](C)C(=O)N[C@@H](CCC(=O)O)C(=O)N[C@@H](CCCNC(=N)N)C(=O)N1CCC[C@H]1C(=O)NCC(=O)N[C@@H](CCC(=O)O)C(=O)N[C@@H](C)C(=O)N[C@@H](C)C(=O)N[C@H](C(=O)N[C@@H](C)C(=O)O)C(C)C)[C@@H](C)O", "note": "[MANS peptide] (Myristoyl-GAQFSKTAAKGEAAAERPGEAAVA-OH; C-terminus assumed)", "values": [
      {"measurement": "Absorbance at 450 nm (MPO secretion)", "setting": "human neutrophils; [3]", "value": 0.102},
      {"measurement": "Absorbance at 450 nm (MPO secretion)", "setting": "human neutrophils; [4]", "value": 0.093},
      {"measurement": "Absorbance at 450 nm (MPO secretion)", "setting": "human neutrophils; [5]", "value": 0.068},
      {"measurement": "Absorbance at 450 nm (MPO secretion)", "setting": "canine neutrophils; [6]", "value": 0.25},
      {"measurement": "Absorbance at 450 nm (MPO secretion)", "setting": "canine neutrophils; [4]", "value": 0.09},
      {"measurement": "Diminished IL-6 levels (inhibition) vs. PBS control", "setting": "[2]; after ozone exposure", "value": "approximately 85%"},
      {"measurement": "Effect on interferon-γ levels", "setting": "[2]; after ozone exposure", "value": "little effect"},
      {"measurement": "Reduced neutrophil cell infiltration in the BAL fluid vs. PBS control", "setting": "[2]; after ozone exposure", "value": "93%±5%"},
      {"measurement": "Diminished IL-6 levels (inhibition) vs. PBS control", "setting": "[2]; after ozone exposure, listed as MANS", "value": "88%±8%"},
      {"measurement": "% Neutrophils found in BAL fluid", "setting": "[2]", "value": 1.5, "unit": "%"},
      {"measurement": "IFNγ in BAL fluid", "setting": "[2]", "value": "approximately 13 pg/ml"},
      {"measurement": "IL-6 in BAL fluid", "setting": "[2]", "value": "approximately 23 pg/ml"},
      {"measurement": "KC in BAL fluid", "setting": "[2]", "value": "approximately 60 pg/ml"},
      {"measurement": "% Inhibition of neutrophil migration into BAL fluid", "setting": "[2]", "value": 93.0, "unit": "%"}
    ]},
    {"smiles": "CCCCCCCCCCCCCC(=O)O[C@@H]1[C@@H](C)[C@@]2(O)[C@@H](C=C(CO)C[C@]3(O)C(=O)C(C)=C[C@@H]23)[C@@H]2C(C)(C)[C@]12OC(C)=O", "note": "[PMA, phorbol 12-myristate 13-acetate]", "values": [
      {"measurement": "Absorbance reading at 450 nm (MPO secretion)", "setting": "[1]; 10 nM PMA, medium control 0.15", "value": 0.19}
    ]},
    {"smiles": "CCCCCCCCCCCCCC(=O)NCC(=O)N[C@H](C(=O)N[C@@H](C)C(=O)N1CCC[C@H]1C(=O)N[C@@H](C)C(=O)N[C@@H](C)C(=O)N[C@@H](CCC(=O)O)C(=O)NCC(=O)N[C@@H](C)C(=O)NCC(=O)N[C@@H](C)C(=O)N[C@@H](CCC(=O)O)C(=O)N[C@H](C(=O)N[C@@H](CCCCN)C(=O)N[C@@H](CCCNC(=N)N)C(=O)N[C@@H](C)C(=O)N[C@@H](CO)C(=O)N[C@@H](C)C(=O)N[C@@H](CCC(=O)O)C(=O)N[C@@H](C)C(=O)N[C@@H](CCCCN)C(=O)N[C@@H](CCC(N)=O)C(=O)N[C@@H](C)C(=O)N[C@@H](Cc1ccccc1)C(=O)O)C(C)C)[C@@H](C)O", "note": "[RNS peptide, reference compound] (Myristoyl-GTAPAAEGAGAEVKRASAEAKQAF-OH; C-terminus assumed)", "values": [
      {"measurement": "Absorbance at 450 nm (MPO secretion)", "setting": "human neutrophils; [3]", "value": 0.099},
      {"measurement": "Absorbance at 450 nm (MPO secretion)", "setting": "human neutrophils; [4]", "value": 0.100},
      {"measurement": "Absorbance at 450 nm (MPO secretion)", "setting": "human neutrophils; [5]", "value": 0.100},
      {"measurement": "Absorbance at 450 nm (MPO secretion)", "setting": "canine neutrophils; [6]", "value": 0.32},
      {"measurement": "Absorbance at 450 nm (MPO secretion)", "setting": "canine neutrophils; [4]", "value": 0.30}
    ]},
    {"smiles": "CCCCCCCCCCCCCC(=O)NCC(=O)N[C@@H](C)C(=O)N[C@@H](CCC(N)=O)C(=O)N[C@@H](Cc1ccccc1)C(=O)N[C@@H](CO)C(=O)N[C@@H](CCCCN)C(=O)N[C@H](C(=O)N[C@@H](C)C(=O)N[C@@H](C)C(=O)N[C@@H](CCCCN)C(=O)O)[C@@H](C)O", "note": "[SEQ ID NO: 15, N-myristoyl-GAQFSKTAAK] (Myristoyl-GAQFSKTAAK-OH; C-terminus assumed)", "values": [
      {"measurement": "Diminished IL-6 levels (inhibition) vs. PBS control", "setting": "[2]; after ozone exposure", "value": "75%±8% and ~75%"},
      {"measurement": "Diminished KC concentrations (inhibition) vs. PBS control", "setting": "[2]; after ozone exposure", "value": "38%±5% and ~40%"},
      {"measurement": "Effect on interferon-γ levels", "setting": "[2]; after ozone exposure", "value": "little effect"},
      {"measurement": "Reduced neutrophil cell infiltration in the BAL fluid vs. PBS control", "setting": "[2]; after ozone exposure", "value": "47.7%±5%"},
      {"measurement": "% Neutrophils found in BAL fluid", "setting": "[2]", "value": 11.2, "unit": "%"},
      {"measurement": "IFNγ in BAL fluid", "setting": "[2]", "value": "approximately 9 pg/ml"},
      {"measurement": "IL-6 in BAL fluid", "setting": "[2]", "value": "approximately 49 pg/ml"},
      {"measurement": "KC in BAL fluid", "setting": "[2]", "value": "approximately 147 pg/ml"},
      {"measurement": "% Inhibition of neutrophil migration into BAL fluid", "setting": "[2]", "value": 47.7, "unit": "%"}
    ]}
  ]
}
